According to ChEMBL document CHEMBL1671687, “Enhancement of biofilm formation by subinhibitory concentrations of macrolides in icaADBC-positive and -negative clinical isolates of Staphylococcus epidermidis” (2010):
Converted amounts (≈) assume the structure as drawn.

Columns and labels:
Type in all cases: functional
[1] = test system: Staphylococcus epidermidis; assay: Antimicrobial activity against Staphylococcus epidermidis SW029 expressing icaA gene
[2] = test system: Staphylococcus epidermidis; assay: Enhancement of biofilm formation Staphylococcus epidermidis SW061 expressing icaA gene at subinhibitory concentration by microtiter plate assay; set-up: scale not given: the % may be the effect or the level left
[3] = test system: Staphylococcus epidermidis; assay: Enhancement of biofilm formation Staphylococcus epidermidis SW036 at subinhibitory concentration by microtiter plate assay; set-up: scale not given: the % may be the effect or the level left
[4] = test system: Staphylococcus epidermidis; assay: Enhancement of biofilm formation Staphylococcus epidermidis SW067 expressing icaA gene at subinhibitory concentration by microtiter plate assay; set-up: scale not given: the % may be the effect or the level left
[5] = test system: Staphylococcus epidermidis; assay: Enhancement of biofilm formation Staphylococcus epidermidis SW082 at subinhibitory concentration by microtiter plate assay; set-up: scale not given: the % may be the effect or the level left
[6] = test system: Staphylococcus epidermidis; assay: Enhancement of biofilm formation Staphylococcus epidermidis SW099 at subinhibitory concentration by microtiter plate assay; set-up: scale not given: the % may be the effect or the level left
[7] = test system: Staphylococcus epidermidis; assay: Enhancement of biofilm formation Staphylococcus epidermidis SW070 at subinhibitory concentration by microtiter plate assay; set-up: scale not given: the % may be the effect or the level left
[8] = test system: Staphylococcus epidermidis; assay: Enhancement of biofilm formation Staphylococcus epidermidis SW126 expressing icaA gene at subinhibitory concentration by microtiter plate assay; set-up: scale not given: the % may be the effect or the level left
[9] = test system: Staphylococcus epidermidis; assay: Enhancement of biofilm formation Staphylococcus epidermidis SW045 expressing icaA gene at subinhibitory concentration by microtiter plate assay; set-up: scale not given: the % may be the effect or the level left
[10] = test system: Staphylococcus epidermidis; assay: Enhancement of biofilm formation Staphylococcus epidermidis ATCC 35984 expressing icaA gene at subinhibitory concentration by microtiter plate assay; set-up: scale not given: the % may be the effect or the level left
[11] = test system: Staphylococcus epidermidis; assay: Enhancement of biofilm formation Staphylococcus epidermidis SW120 at subinhibitory concentration by microtiter plate assay; set-up: scale not given: the % may be the effect or the level left
[12] = test system: Staphylococcus epidermidis; assay: Enhancement of biofilm formation Staphylococcus epidermidis SW058 expressing icaA gene at subinhibitory concentration by microtiter plate assay; set-up: scale not given: the % may be the effect or the level left
[13] = test system: Staphylococcus epidermidis; assay: Enhancement of biofilm formation Staphylococcus epidermidis SW071 at subinhibitory concentration by microtiter plate assay; set-up: scale not given: the % may be the effect or the level left
[14] = test system: Staphylococcus epidermidis; assay: Antimicrobial activity against Staphylococcus epidermidis SW027 expressing icaA gene assessed as enhancement of biofilm formation at subinhibitory concentration by microtiter plate assay; set-up: scale not given: the % may be the effect or the level left
[15] = test system: Staphylococcus epidermidis; assay: Enhancement of biofilm formation Staphylococcus epidermidis SW029 expressing icaA gene at subinhibitory concentration by microtiter plate assay; set-up: scale not given: the % may be the effect or the level left
[16] = test system: Staphylococcus epidermidis; assay: Antimicrobial activity against Staphylococcus epidermidis SW036
[17] = test system: Staphylococcus epidermidis; assay: Enhancement of biofilm formation Staphylococcus epidermidis SW104 expressing icaA gene at subinhibitory concentration by microtiter plate assay; set-up: scale not given: the % may be the effect or the level left
[18] = test system: Staphylococcus epidermidis; assay: Enhancement of biofilm formation Staphylococcus epidermidis SW021 at subinhibitory concentration by microtiter plate assay; set-up: scale not given: the % may be the effect or the level left
[19] = test system: Staphylococcus epidermidis; assay: Enhancement of biofilm formation Staphylococcus epidermidis SW085 expressing icaA gene at subinhibitory concentration by microtiter plate assay; set-up: scale not given: the % may be the effect or the level left
[20] = test system: Staphylococcus epidermidis; assay: Enhancement of biofilm formation Staphylococcus epidermidis SW015 at subinhibitory concentration by microtiter plate assay; set-up: scale not given: the % may be the effect or the level left
[21] = test system: Staphylococcus epidermidis; assay: Enhancement of biofilm formation Staphylococcus epidermidis SW032 expressing icaA gene at subinhibitory concentration by microtiter plate assay; set-up: scale not given: the % may be the effect or the level left
[22] = test system: Staphylococcus epidermidis; assay: Enhancement of biofilm formation Staphylococcus epidermidis SW098 expressing icaA gene at subinhibitory concentration by microtiter plate assay; set-up: scale not given: the % may be the effect or the level left
[23] = test system: Staphylococcus epidermidis; assay: Enhancement of biofilm formation Staphylococcus epidermidis SW088 at subinhibitory concentration by microtiter plate assay; set-up: scale not given: the % may be the effect or the level left
[24] = test system: Staphylococcus epidermidis; assay: Enhancement of biofilm formation Staphylococcus epidermidis SW115 at subinhibitory concentration by microtiter plate assay; set-up: scale not given: the % may be the effect or the level left

## CC[C@H]1OC(=O)[C@H](C)[C@@H](O[C@H]2C[C@@](C)(OC)[C@@H](O)[C@H](C)O2)[C@H](C)[C@@H](O[C@@H]2O[C@H](C)C[C@H](N(C)C)[C@H]2O)[C@](C)(OC)C[C@@H](C)C(=O)[C@H](C)[C@@H](O)[C@]1(C)O [CLARITHROMYCIN]
[1]
  MIC: > 128 µg/mL
[2]
  Activity: 46.3%
[3]
  Activity: 292%
[4]
  Activity: 140.2%
[5]
  Activity: 62.8%
[6]
  Activity: 38.7%
[7]
  Activity: 155.6%
[8]
  Activity: 50.3%
[9]
  Activity: 32.2%
[10]
  Activity: -3.9%
[11]
  Activity: 50.6%
[12]
  Activity: 54.9%
[13]
  Activity: 147.2%
[14]
  Activity: 62.3%
[15]
  Activity: 146.4%
[16]
  MIC: 16 µg/mL (≈ 21.4 µM)
[17]
  Activity: 51.5%
[18]
  Activity: 54.6%
[19]
  Activity: 275.8%
[20]
  Activity: 78.6%
[21]
  Activity: 71.8%
[22]
  Activity: 112.8%
[23]
  Activity: 201.5%
[24]
  Activity: 164%
